Measurements published in patent US9790221B2, “Heteroaryl compounds as IRAK inhibitors and uses thereof” (Merck Patent GmbH, priority 2014, dated 2017).
Where a name gives a salt, the structure may show the parent alone. Read-outs that look alike come from different tables or passages of the source.

Tests used:
[1] = target: IRAK1 (His-TEV-IRAK1 (194-712)) (Homo sapiens (Human), UniProt P51617); assay: IRAK1 enzymatic assay; format: biochemical
How it was run: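 Compounds ([…] down to 1 nM) were incubated 3 h at 30° C with His-TEV-IRAK1 (194-712, 15 ng/well) and 1 μM [33P]-labelled ATP in 50 mM Hepes pH 7.0, 10 mM MgCl2. After EDTA stop and washing, the retained autophosphorylation signal was measured by scintillation in streptavidin-coated plates.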

IRAK4 = IRAK4 (Homo sapiens (Human), UniProt Q9NWZ3); assay: IRAK4 enzymatic assay; format: biochemical
Chain of IRAK4 (Q9NWZ3 whole entry): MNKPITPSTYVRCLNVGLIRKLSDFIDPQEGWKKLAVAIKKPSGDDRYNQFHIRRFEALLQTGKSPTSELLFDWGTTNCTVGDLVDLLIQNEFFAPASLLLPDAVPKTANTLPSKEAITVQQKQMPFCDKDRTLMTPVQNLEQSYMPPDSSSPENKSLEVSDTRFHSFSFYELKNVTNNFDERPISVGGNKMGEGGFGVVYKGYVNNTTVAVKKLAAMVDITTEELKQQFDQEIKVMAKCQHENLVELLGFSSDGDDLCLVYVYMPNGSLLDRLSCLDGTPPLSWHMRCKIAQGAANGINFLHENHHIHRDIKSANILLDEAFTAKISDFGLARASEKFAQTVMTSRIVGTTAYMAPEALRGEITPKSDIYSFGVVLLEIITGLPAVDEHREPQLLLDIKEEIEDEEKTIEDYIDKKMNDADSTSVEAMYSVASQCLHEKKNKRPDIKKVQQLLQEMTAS
How it was run: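 Radiometric streptavidin FlashPlate read: 3 h, 30° C incubation of His-TEV-IRAK4 (20 ng/well), STK1-biotin substrate (300 nM) and ATP (2 μM, [^33P]-labelled) in Hepes pH 7.0, MgCl2 10 mM, MnCl2 5 mM. Compounds from 20 µM down to 1 nM, 2% DMSO controls; reaction quenched with EDTA.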

[2] = system: TLR7 induced IL-6 secretion in human mononuclear cells (PBMC's); assay: TLR7 induced IL-6 in human PBMC's; format: cell-based; conditions: read-out: TLR7 induced IL-6 secretion in hPBMC's (IC50)
Experimental: TLR7 Induced IL-6 in Human PBMC's
Human PBMC assay was used as one of the functional assay a to monitor the activity of IRAK1 and IRAK4 small molecule inhibitors on TLR7 induced IL-6 secretion in human mononuclear cells (PBMC's). Human PBMCs were prepared from buffy coats (whole blood enriched with leukocytes and platelets) obtained from healthy volunteers used either fresh or frozen are plated in assay media (RPMI+2% P/S/L-glu+10% HI-FBS) and pre-treated with compounds in DMSO/media (range of concentrations from 25 uM to 0.4 nM) or controls (0.25% DMSO) for 30 minutes at 37° C. in assay media. Following pre-treatment with IRAK1 and IRAK4 inhibitors, PBMC's were stimulated with TLR7 specific ligand (2 uM) overnight (16-18 hrs) at 37° C. After incubation supernatant was transferred to 384 well PE AlphaPlate-384 (6005350) and IL-6 is quantified using Perkin Elmer IL-6 Alpha LISA kit (AL223C). Plates were read on an Envision® plate reader with Alpha Technology®.

Chain of IRAK1 (His-TEV-IRAK1 (194-712)) (P51617 194-712): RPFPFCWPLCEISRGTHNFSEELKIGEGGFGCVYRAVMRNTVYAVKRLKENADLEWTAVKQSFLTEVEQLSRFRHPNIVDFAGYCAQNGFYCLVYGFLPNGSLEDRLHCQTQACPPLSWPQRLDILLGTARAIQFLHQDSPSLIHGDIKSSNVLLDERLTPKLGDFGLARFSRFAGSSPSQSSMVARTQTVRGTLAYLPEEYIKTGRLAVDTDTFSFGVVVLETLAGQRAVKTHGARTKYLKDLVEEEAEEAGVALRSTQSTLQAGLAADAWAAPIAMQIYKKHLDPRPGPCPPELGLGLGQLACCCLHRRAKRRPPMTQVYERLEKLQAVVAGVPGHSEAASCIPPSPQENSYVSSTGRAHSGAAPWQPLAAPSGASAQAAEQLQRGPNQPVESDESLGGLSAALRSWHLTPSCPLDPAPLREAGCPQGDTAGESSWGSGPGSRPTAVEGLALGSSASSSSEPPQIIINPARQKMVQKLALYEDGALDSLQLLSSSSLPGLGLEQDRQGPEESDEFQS

Compound | IC50 [1] [nM] | IC50 (IRAK4) [nM] | IC50 [2] [nM] | IC50 ([2]; Homo sapiens, PBMC) [nM]
Cn1cc(-c2cccc(-c3ncc(-c4cnn(C)c4)c(N4C[C@H](N)CC(F)(F)C4)n3)c2)cn1 [Example 283, (R)-5,5-Difluoro-1-{5-(1-methyl-1H-pyrazol-4-yl)-2-[3-(1-methyl-1H-pyrazol-4-yl)-phenyl]-pyrimidin-4-yl}-piperidin-3-ylamine] | 1000 to 5000 | 1000 to 5000 | – | 1000 to 5000
Cn1cc(-c2cccc(-c3ncc(-c4cnn(C)c4)c(N[C@@H]4CCC[C@@H](F)[C@@H]4O)n3)c2)cn1 (single isomer, unassigned) [Example 286] | 100 to 1000 | < 100 | – | 100 to 1000
Cn1cc(-c2cccc(-c3ncc(-c4cnn(C)c4)c(N[C@H]4C[C@@H](S(C)(=O)=O)C4)n3)c2)cn1 [Example 49] | 100 to 1000 | 100 to 1000 | – | > 5000
Cn1cc(-c2cccc(-c3ncc(-c4cnn(C)c4)c(NCCCS(C)(=N)=O)n3)c2)cn1 (stereo not drawn) [Example 282] | 1000 to 5000 | 100 to 1000 | – | > 5000
Cn1cc(-c2cccc(-c3ncc(-c4cnn(C)c4)c(NC45CC(NS(C)(=O)=O)(C4)C5)n3)c2)cn1 [Example 270] | < 100 | < 100 | – | < 100
Cn1cc(-c2cccc(-c3ncc(-c4cnn(C)c4)c(N4CCC(CNS(C)(=O)=O)C4)n3)c2)cn1 (stereo not drawn) [Example 265] | 100 to 1000 | < 100 | – | > 5000
Cn1cc(-c2cccc(-c3ncc(-c4ccn(C)n4)c(NC[C@@H](O)CO)n3)c2)cn1 [Example 83] | 1000 to 5000 | 100 to 1000 | – | 100 to 1000
Cn1cc(-c2cccc(-c3ncc(-c4cnn([C@H]5CC[C@]6(CCC(=O)N6C)CC5)c4)c(NCC4CCNCC4)n3)c2)cn1 [Example 86, 1-Methyl-8-(4-{2-[3-(1-methyl-1H-pyrazol-4-yl)-phenyl]-4-[(piperidin-4-ylmethyl)-amino]-pyrimidin-5-yl}-pyrazol-1-yl)-1-aza-spiro[4.5]decan-2-one Hydrochloride] | 1000 to 5000 | < 100 | – | > 5000
Cn1cc(-c2cccc(-c3ncc(-c4cnn(C)c4)c(NCC(F)(F)C(F)(F)C(F)(F)F)n3)c2)cn1 [Example 272] | 100 to 1000 | < 100 | 1000 to 5000 | –
Cn1cc(-c2cccc(-c3ncc(-c4cnn(C)c4)c(N[C@H]4CC[C@H](NS(=O)(=O)C5CC5)CC4)n3)c2)cn1 [Example 276] | < 100 | < 100 | – | 100 to 1000
Cn1cc(-c2cccc(-c3ncc(-c4ccn(C)n4)c(NCC4CCCNC4)n3)c2)cn1 (stereo not drawn) [Example 10, {5-(1-Methyl-1H-pyrazol-3-yl)-2-[3-(1-methyl-1H-pyrazol-4-yl)-phenyl]-pyrimidin-4-yl}-piperidin-3-ylmethyl-amine] | 100 to 1000 | 100 to 1000 | – | 1000 to 5000
Cn1cc(-c2cccc(-c3ncc(-c4cnn(C)c4)c(N4CC[C@H](F)[C@@H](O)C4)n3)c2)cn1 [Example 280] | 100 to 1000 | < 100 | – | 1000 to 5000
Cn1cc(-c2cccc(-c3ncc(-c4ccn(C)n4)c(N[C@@H]4CCC[C@@H](O)[C@H]4O)n3)c2)cn1 (racemic) [Example 131] | 1000 to 5000 | < 100 | – | 1000 to 5000
Cn1cc(-c2cccc(-c3ncc(-c4cnn(C)c4)c(NCCNS(C)(=O)=O)n3)c2)cn1 [Example 267] | 100 to 1000 | < 100 | – | 100 to 1000
Cn1cc(-c2cccc(-c3ncc(-c4ccn(C)n4)c(NCC4CC(F)(F)C4)n3)c2)cn1 [Example 81] | 1000 to 5000 | 100 to 1000 | – | > 5000
CN(CC1CC(F)(F)C1)c1nc(-c2cccc(-c3cnn(C)c3)c2)ncc1-c1cnn(C)c1 [Example 141] | 1000 to 5000 | 100 to 1000 | – | 1000 to 5000
Cn1cc(-c2cccc(-c3ncc(-c4cnn(C)c4)c(NC45CC(CNS(C)(=O)=O)(C4)C5)n3)c2)cn1 [Example 245] | < 100 | < 100 | – | 100 to 1000
Cn1cc(-c2cccc(-c3ncc(-c4cnn(C)c4)c(N4CCC(N)CC4)n3)c2)cn1 [Example 239] | 100 to 1000 | 100 to 1000 | – | 100 to 1000
Cn1cc(-c2cccc(-c3ncc(-c4cnn(C)c4)c(NCCCS(C)(=O)=O)n3)c2)cn1 [Example 213] | < 100 | < 100 | – | 100 to 1000
Cc1ccc(-c2cnc(-c3cccc(-c4cnn(C)c4)c3)nc2NC2CCN(S(C)(=O)=O)CC2)cn1 [Example 215] | 100 to 1000 | < 100 | – | 100 to 1000
Cn1cc(-c2cccc(-c3ncc(-c4cnn(C)c4)c(NCC4(C)CCC4)n3)c2)cn1 [Example 43] | 100 to 1000 | 100 to 1000 | – | 1000 to 5000
Cn1cc(-c2cccc(-c3ncc(-c4cnn(C)c4)c(N[C@@H]4CC[C@H](N)C4)n3)c2)cn1 (racemic) [Example 108] | 100 to 1000 | < 100 | – | 100 to 1000
Cn1cc(-c2cccc(-c3ncc(-c4cnn(C)c4)c(N[C@@H]4CNC[C@H]4O)n3)c2)cn1 (racemic) [Example 113] | 100 to 1000 | < 100 | – | 1000 to 5000
Cn1cc(-c2cccc(-c3ncc(-c4cnn(C)c4)c(NCC(O)C(F)(F)F)n3)c2)cn1 (stereo not drawn) [Example 275] | 100 to 1000 | < 100 | – | 100 to 1000

Second part, led by results:

IC50 [1] [nM] | IC50 (IRAK4) [nM] | Compound | IC50 [2] [nM] | IC50 ([2]; Homo sapiens, PBMC) [nM]
< 100 | < 100 | Cn1cc(-c2cccc(-c3ncc(-c4cnn(C)c4)c(N[C@H]4CCCC[C@@H](O)[C@H]4O)n3)c2)cn1 [Example 288, (1R,2S,3S)-3-{5-(1-Methyl-1H-pyrazol-4-yl)-2-[3-(1-methyl-1H-pyrazol-4-yl)-phenyl]-pyrimidin-4-ylamino}-cycloheptane-1,2-diol] | < 100 | –
< 100 | < 100 | Cn1cc(-c2cccc(-c3ncc(-c4cnn(C)c4)c(N[C@H]4CCC[C@@H](O)[C@H]4O)n3)c2)cn1 [Example 268] | – | < 100
100 to 1000 | < 100 | Cn1cc(-c2cccc(-c3ncc(-c4cnn(C)c4)c(NCCCNS(C)(=O)=O)n3)c2)cn1 [Example 179] | – | 1000 to 5000
100 to 1000 | < 100 | CC(C)Nc1cc(-c2cccc(-c3cnn(C)c3)n2)ncc1-c1nnc(C(=O)N2CC[C@@H](O)C2)s1 [Example 22, ((R)-3-Hydroxy-pyrrolidin-1-yl)-{5-[4-isopropylamino-6′-(1-methyl-1H-pyrazol-4-yl)-[2,2′]bipyridinyl-5-yl]-[1,3,4]thiadiazol-2-yl}-methanone] | – | 100 to 1000
100 to 1000 | < 100 | Cc1nnc(-c2cnc(-c3cccc(-c4cnn(C)c4)c3)nc2NCC(O)C(F)(F)F)s1 (stereo not drawn) [Example 216] | – | 100 to 1000
100 to 1000 | < 100 | Cc1nnc(-c2cnc(-c3cccc(-c4cnn(C)c4)c3)nc2NCCNS(C)(=O)=O)s1 [Example 184] | – | 100 to 1000
100 to 1000 | < 100 | Cn1cc(-c2cccc(-c3ncc(-c4cnn(C)c4)c(NC4CCCCC4O)n3)c2)cn1 (stereo not drawn) [Example 244] | – | 100 to 1000
100 to 1000 | 100 to 1000 | Cn1cc(-c2cccc(-c3ncc(-c4cnn(C)c4)c(N[C@H]4C[C@H](CNS(C)(=O)=O)C4)n3)c2)cn1 [Example 196, N-(3-{5-(1-Methyl-1H-pyrazol-4-yl)-2-[3-(1-methyl-1H-pyrazol-4-yl)-phenyl]-pyrimidin-4-ylamino}-cyclobutylmethyl)-methanesulfonamide] | – | 1000 to 5000
> 5000 | 100 to 1000 | Cn1cc(-c2cccc(-c3ccc(-c4cnn(C5CCNCC5)c4)cn3)c2)cn1 [Example 1, 2-[3-(1-Methyl-1H-pyrazol-4-yl)-phenyl]-5-(1-piperidin-4-yl-1H-pyrazol-4-yl)-pyridine Hydrochloride] | – | 1000 to 5000
100 to 1000 | < 100 | CC(C)Nc1nc(-c2cccc(-c3cnn(C)c3)c2)ncc1-c1nnc(C2CCNCC2)s1 [Example 210] | – | 100 to 1000
100 to 1000 | < 100 | Cn1cc(-c2cccc(-c3ncc(-c4ccn(C)n4)c(NC4C5CCCC4CC(N)C5)n3)c2)cn1 (stereo not drawn) [Example 152] | – | 100 to 1000
< 100 | < 100 | Cn1cc(-c2cccc(-c3ncc(-c4cnn(C)c4)c(N[C@H]4CC[C@H](NS(C)(=O)=O)CC4)n3)c2)cn1 [Example 182] | – | 100 to 1000
100 to 1000 | 100 to 1000 | Cn1cc(-c2cccc(-c3ncc(-c4ccn(C)n4)c(N[C@@H]4CC[C@H](N)C4)n3)c2)cn1 (racemic) [Example 107] | – | 100 to 1000
